Measured values from ChEMBL document CHEMBL1149456, “Substituted 4-hydroxyphenyl sulfonamides as pathway-selective estrogen receptor ligands” (Bioorg Med Chem Lett, 2006).

Columns and labels:
Estrogen receptor [1] = target: T1, Estrogen receptor (Homo sapiens, UniProt P03372); assay: Inhibition of binding to ER in Ad5-wt-ER-infected HAECT1 cells by NF-kappaB-mediated luciferase reporter; assay type: functional, cell-based
T1 sequence (P03372 whole entry): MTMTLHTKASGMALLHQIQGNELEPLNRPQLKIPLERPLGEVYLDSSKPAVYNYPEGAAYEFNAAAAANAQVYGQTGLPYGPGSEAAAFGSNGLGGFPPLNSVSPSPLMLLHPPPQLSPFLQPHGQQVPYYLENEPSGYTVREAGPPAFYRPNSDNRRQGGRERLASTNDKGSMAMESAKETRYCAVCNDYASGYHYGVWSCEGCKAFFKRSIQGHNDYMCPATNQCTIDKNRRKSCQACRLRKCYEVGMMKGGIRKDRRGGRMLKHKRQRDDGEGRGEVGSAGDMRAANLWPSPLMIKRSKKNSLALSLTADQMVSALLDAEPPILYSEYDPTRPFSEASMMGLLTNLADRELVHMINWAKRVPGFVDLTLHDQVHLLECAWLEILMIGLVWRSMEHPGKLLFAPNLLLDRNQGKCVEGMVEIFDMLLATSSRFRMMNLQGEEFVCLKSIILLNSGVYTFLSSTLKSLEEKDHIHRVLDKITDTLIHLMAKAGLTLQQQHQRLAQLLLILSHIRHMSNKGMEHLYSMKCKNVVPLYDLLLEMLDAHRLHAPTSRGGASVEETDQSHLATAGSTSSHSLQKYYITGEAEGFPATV

Estrogen receptor [2] = target: T1, Estrogen receptor; assay: Effect on binding to ER in Ad5-wt-ER-infected HAECT1 cells by creatine kinase expression; assay type: functional, cell-based

| IC50 (Estrogen receptor [1]; haect1) | EC50 (Estrogen receptor [2]; read-out: EC50) [µM] | IC50 (Estrogen receptor [1]; read-out: IC50) [µM] | SMILES | EC50 (Estrogen receptor [2]; haect1) |
| --- | --- | --- | --- | --- |
| Not Active |  |  | CCN(c1ccccc1)S(=O)(=O)c1ccc(O)c(OC)c1 |  |
| Not Active |  |  | CCN(c1ccc(OC)cc1)S(=O)(=O)c1ccc(O)cc1 |  |
|  | 0.378 | 0.09 | CCN(c1ccccc1Br)S(=O)(=O)c1ccc(O)cc1 |  |
|  | 0.153 | 0.026 | CCCN(c1c(C)cccc1Cl)S(=O)(=O)c1ccc(O)c(C)c1 |  |
|  | 0.378 | 0.016 | CCCN(c1c(Cl)cccc1Cl)S(=O)(=O)c1ccc(O)c(C)c1 |  |
|  | 0.151 | 0.026 | CCCN(c1ccccc1Br)S(=O)(=O)c1ccc(O)cc1 |  |
|  | 2.14 | 0.328 | CCN(c1ccccc1)S(=O)(=O)c1ccc(O)c(C)c1 |  |
|  | 1.39 | 0.272 | CCN(c1ccc(O)cc1)S(=O)(=O)c1ccc(O)cc1 |  |
|  | > 2.5 | 1.37 | CC(C)(C)CN(c1ccccc1)S(=O)(=O)c1ccc(O)cc1 |  |
|  | 0.705 | 0.317 | CCCCN(c1ccccc1)S(=O)(=O)c1ccc(O)cc1 |  |
|  | 1.43 | 0.303 | CCCN(c1ccccc1)S(=O)(=O)c1ccc(O)cc1 |  |
|  | 0.144 | 0.042 | CCCN(c1ccccc1Cl)S(=O)(=O)c1ccc(O)cc1 |  |
|  | 0.012 | 0.007 | CCCN(c1c(C)cccc1CC)S(=O)(=O)c1ccc(O)c(C)c1 |  |
|  |  | 0.06 | CCCN(c1ccccc1Br)S(=O)(=O)c1ccc(O)c(C(F)(F)F)c1 | Not Active |
| Not Active |  |  | O=S(=O)(c1ccc(O)cc1)N(CCO)c1ccccc1 |  |
|  | 1.6 | 0.404 | CCN(c1ccccc1)S(=O)(=O)c1ccc(O)cc1 |  |
|  | 0.243 | 0.054 | CCCN(c1ccccc1C(F)(F)F)S(=O)(=O)c1ccc(O)cc1 |  |
| Not Active |  |  | CN(c1ccccc1)S(=O)(=O)c1ccc(O)cc1 |  |
|  | 0.063 | 0.024 | CCCN(c1c(C)cccc1Cl)S(=O)(=O)c1ccc(O)cc1 |  |
|  | 2.17 | 0.83 | CCN(c1ccccc1OC)S(=O)(=O)c1ccc(O)cc1 |  |
|  | 0.599 | 0.235 | C=CCN(c1ccccc1)S(=O)(=O)c1ccc(O)cc1 |  |

Continued, compound first:

| SMILES | IC50 (Estrogen receptor [1]; haect1) | EC50 (Estrogen receptor [2]; read-out: EC50) [µM] | IC50 (Estrogen receptor [1]; read-out: IC50) [µM] | EC50 (Estrogen receptor [2]; haect1) |
| --- | --- | --- | --- | --- |
| CCCN(c1c(C)cccc1C)S(=O)(=O)c1ccc(O)c(C)c1 |  | 0.075 | 0.014 |  |
| O=S(=O)(Nc1ccccc1)c1ccc(O)cc1 | Not Active |  |  |  |
| CCCN(c1ccccc1Br)S(=O)(=O)c1ccc(O)c(C)c1 |  | 0.48 | 0.04 |  |
| CCCN(c1c(CC)cccc1CC)S(=O)(=O)c1ccc(O)c(C)c1 |  | 0.213 | 0.005 |  |
| CCN(c1cccc(OC)c1)S(=O)(=O)c1ccc(O)cc1 |  | 0.83 | 1.97 |  |
| O=S(=O)(c1ccc(O)cc1)N(c1ccccc1)c1ccccc1 |  | 1.54 | 0.41 |  |
| CCCN(c1ccccc1F)S(=O)(=O)c1ccc(O)cc1 |  | 0.161 | 0.074 |  |
| O=S(=O)(c1ccc(O)cc1)N1CCCc2ccccc21 | Not Active |  |  |  |
| O=S(=O)(c1ccc(O)cc1)N(Cc1ccccc1)c1ccccc1 |  | 0.242 | 0.5 |  |
| CCCN(c1ccccc1Cl)S(=O)(=O)c1ccc(O)c(C)c1 |  | 0.65 | 0.051 |  |
| CC1CCc2ccccc2N1S(=O)(=O)c1ccc(O)cc1 (stereo not drawn) |  | > 1 | 0.479 |  |
| CCCN(c1ccccc1-c1ccccc1)S(=O)(=O)c1ccc(O)c(C)c1 |  | > 2.89 | 0.253 |  |
| CC(C)N(c1ccccc1)S(=O)(=O)c1ccc(O)cc1 |  | 1.99 | 0.871 |  |
| O=S1(=O)c2ccc(O)cc2CCN1c1ccccc1Cl |  |  | 0.892 | Not Active |
| CCCN(c1ccccc1C)S(=O)(=O)c1ccc(O)c(C)c1 |  | 0.923 | 0.109 |  |
| O=S(=O)(c1ccc(O)cc1)N(c1ccccc1)C1CCCCC1 |  | 0.534 | 0.866 |  |
